Reference: paper PMC12522106 (Cancer Research Communications, 2025)
One block for each molecule: values may come before it.

Columns and labels:
[1] = tested on: sarcospheres derived from 143B, MG63.3-GFP, and LM7 cell lines; assay: Sarcosphere resazurin metabolic activity, results stated across all three cell lines; type: cell-based, human; details: for effect on sarcosphere metabolic activity at Cmax: HDIs in clinical trials, tested at their Cmax, with and without MAP; for effect in initial screen: 48 hours, all three cell lines
Experimental: (§1) Khanna DVM, PhD (NCI). […] Medium was sterile filtered before use.
(§2) Highly metastatic osteosarcoma cells cultured in monolayers at 50% to 80% confluence were lifted with Accutase (Innovative Cell Technologies, Inc., cat. #NC9839010), resuspended in media, and diluted to the desired concentration. […] Following cell seeding, plates were centrifuged (1,000 g for 10 minutes at 4°C) and then incubated at 37°C with 5% CO2. […] Then, 100 μL drug treatment or vehicle was added to each well. […] Resazurin reduction on day 2 by vehicle-treated sarcospheres was compared with resazurin reduction on day 0 to calculate sarcosphere growth without drug over 2 days in selected experiments.
(§3) Plates were incubated at 37°C in 5% CO2 for 2 or 6 hours.
(§4) Sarcospheres were matured for 24 hours and then treated for 48 hours with media containing 10 µmol/L of each drug and 0.1% DMSO. […] Growth inhibition represents a more clinically translatable measure for screening studies in which a value of 0% represents stable disease since the start of treatment, values of 0% to 100% represent progression in which 100% is the untreated control, and values less than 0% represent regression in which −100% represents blank wells without sarcospheres.

LM7 sarcospheres = assay: Sarcosphere resazurin metabolic activity (initial and secondary screens); type: cell-based, human; details: for activity in combination with MAP: Bliss curve fitting, LM7
Experimental: as §1, §2, §3, §4

[2] = tested on: monolayers of either established osteosarcoma cell lines or PDX cell lines; parameters: method as in PMID 30395907, PMID 26601688, PMID 37457661, PMID 35411591; details: cited from earlier work
[3] = tested on: spheroids derived from 65 pediatric patients with various types of cancer; parameters: method as in PMID 36575299; details: including seven osteosarcomas; cited from earlier work
[4] = cited from earlier work

effect on sarcosphere metabolic activity at Cmax [1]: most effective
SMILES: CC(C)[C@H](C(=O)Nc1ccc(C(=O)NO)cc1)c1ccccc1 [AR-42]

SMILES: COc1cc2nccc(Oc3ccc(NC(=O)C4(C(=O)Nc5ccc(F)cc5)CC4)cc3)c2cc1OC [Cabozantinib, cabozantinib]
rank in initial screen (LM7 sarcospheres; 10 μmol/L): ranked fifteenth

effect on sarcosphere metabolic activity at Cmax [1]: weakly inhibited
SMILES: CN(C)Cc1c(C(=O)NCCOc2ccc(C(=O)NO)cc2)oc2ccccc12 [abexinostat]

SMILES: CC(C)C[C@H](NC(=O)[C@H](Cc1ccccc1)NC(=O)c1cnccn1)B(O)O [bortezomib]
standing in four independent screens [2]: among the top hits | rank of 75 drugs [3]: nineteenth

SMILES: CC(C)C[C@H](NC(=O)[C@H](CCc1ccccc1)NC(=O)CN1CCOCC1)C(=O)N[C@@H](Cc1ccccc1)C(=O)N[C@@H](CC(C)C)C(=O)[C@@]1(C)CO1 [carfilzomib]
standing in four independent screens [2]: among the top hits | rank of overall mean of the three Cmax/ED50 ratios among the 13 drugs ([1]; without MAP): highest overall mean

SMILES: N.N.[Cl][Pt][Cl] [cisplatin]
effect in initial screen ([1]; 10 μmol/L): no detectable effect

SMILES: COc1cccc2c1C(=O)c1c(O)c3c(c(O)c1C2=O)C[C@@](O)(C(=O)CO)C[C@@H]3O[C@H]1C[C@H](N)[C@H](O)[C@H](C)O1 [doxorubicin]
effect in initial screen ([1]; 10 μmol/L): effective

SMILES: CO[C@H]1C[C@@H]2CC[C@@H](C)[C@@](O)(O2)C(=O)C(=O)N2CCCC[C@H]2C(=O)O[C@H]([C@H](C)C[C@@H]2CC[C@@H](OCCO)[C@H](OC)C2)CC(=O)[C@H](C)/C=C(\C)[C@@H](O)[C@@H](OC)C(=O)[C@H](C)C[C@H](C)/C=C/C=C/C=C/1C [everolimus]
effect in initial screen ([1]; 10 μmol/L): little or no effect

effect on sarcosphere metabolic activity at Cmax [1]: weakly inhibited
SMILES: CCN(CC)Cc1ccc2cc(COC(=O)Nc3ccc(C(=O)NO)cc3)ccc2c1 [givinostat]

effect on sarcosphere metabolic activity at Cmax [1]: weakly inhibited
SMILES: Nc1ccccc1NC(=O)c1ccc(CNc2nccc(-c3cccnc3)n2)cc1 [mocetinostat]

SMILES: Cc1[nH]c2ccccc2c1CCNCc1ccc(/C=C/C(=O)NO)cc1 [panobinostat]
standing in four independent screens [2]: among the top hits | rank of 75 drugs [3]: fifteenth

SMILES: Cc1ccc(C(=O)Nc2ccc(CN3CCN(C)CC3)c(C(F)(F)F)c2)cc1C#Cc1cnc2cccnn12 [ponatinib]
activity in combination with MAP (LM7 sarcospheres): additive-to-synergistic activity

effect on sarcosphere metabolic activity at Cmax [1]: weakly inhibited
SMILES: CCCCc1nc2cc(/C=C/C(=O)NO)ccc2n1CCN(CC)CC [pracinostat]

effect on sarcosphere metabolic activity at Cmax [1]: weakly inhibited
SMILES: Cn1cc(CNCC2CCN(c3ncc(C(=O)NO)cn3)CC2)c2ccccc21 [quisinostat]

effect on sarcosphere metabolic activity at Cmax [1]: most effective
SMILES: CN(C)Cc1ccc(S(=O)(=O)n2ccc(/C=C/C(=O)NO)c2)cc1 [resminostat]

SMILES: CC[C@@]1(O)C(=O)OCc2c1cc1n(c2=O)Cc2cc3c(CN(C)C)c(O)ccc3nc2-1 [topotecan]
rank in initial screen ([1]; 10 μmol/L): ranked eighth | Cmax [4]: 6.5 nM

SMILES: O=C(CCCCCCC(=O)Nc1ccccc1)NO [vorinostat]
activity in combination with MAP (LM7 sarcospheres): additive-to-synergistic activity
